Measurements taken from PubChem BioAssay AID248 (DTP/NCI, 2004).
Several values for one entry are separate records, joined by “and”; a condition that tells them apart may be missing. Equal entries are not always repeated. Toxic doses and inconclusive results are not listed. Cut-off read from the data, not from the text of the source: active = T/C of 150% or more; inactive = T/C below 125%.

System: L1210 leukemia ip in BDF1 mice, survival T/C
Experiment: NCI In Vivo Anticancer Drug Screen. Data for tumor model L1210 Leukemia (intraperitoneal) in B6D2F1 (BDF1) mice
Details: endpoint: mean survival time, higher = longer survival
Procedure, shortened: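 Transplantable tumor model; survival measured in treated vs vehicle control mice. Value = treated/control.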

[1] = dose: 100.0 mg/kg/injection, schedule: Q01DX001 (ip), vehicle: saline
[2] = dose: 200.0 mg/kg/injection, schedule: Q01DX001 (ip), vehicle: saline
[3] = dose: 400.0 mg/kg/injection, schedule: Q01DX001 (ip), vehicle: saline
[4] = dose: 100.0 mg/kg/injection, schedule: Q01DX009 (ip), vehicle: saline with Tween-80
[5] = dose: 100.0 mg/kg/injection, schedule: Q04DX003 (ip), vehicle: Klucel (hydroxypropylcellulose) (HPC)
[6] = dose: 200.0 mg/kg/injection, schedule: Q04DX003 (ip), vehicle: Klucel (hydroxypropylcellulose) (HPC)
[7] = dose: 75.0 mg/kg/injection, schedule: Q01DX001 (ip), vehicle: saline
[8] = dose: 150.0 mg/kg/injection, schedule: Q01DX001 (ip), vehicle: saline
[9] = dose: 300.0 mg/kg/injection, schedule: Q01DX001 (ip), vehicle: saline
[10] = dose: 100.0 mg/kg/injection, schedule: Q01DX001 (ip), vehicle: carboxymethylcellulose (CMC)
[11] = dose: 200.0 mg/kg/injection, schedule: Q01DX001 (ip), vehicle: carboxymethylcellulose (CMC)
[12] = dose: 400.0 mg/kg/injection, schedule: Q01DX001 (ip), vehicle: carboxymethylcellulose (CMC)
[13] = dose: 200.0 mg/kg/injection, schedule: Q01DX009 (ip), vehicle: saline
[14] = dose: 100.0 mg/kg/injection, schedule: Q04DX002 (ip), vehicle: saline with Tween-80
[15] = dose: 200.0 mg/kg/injection, schedule: Q04DX002 (ip), vehicle: saline with Tween-80
[16] = dose: 50.0 mg/kg/injection, schedule: Q04DX002 (ip), vehicle: saline with Tween-80

Measured: T/C

COC(C(C)C)[CH]1[Hg][O]C1=O (stereo not drawn)
inactive: dose: 0.5 mg/kg/injection, schedule: Q01DX001 (ip), vehicle: steriod suspending solution 103 % of control | dose: 1.0 mg/kg/injection, schedule: Q01DX001 (ip), vehicle: steriod suspending solution 108 % of control | dose: 2.0 mg/kg/injection, schedule: Q01DX001 (ip), vehicle: steriod suspending solution 111 % of control

CCCCCCNC(=O)Nc1ccc(Cl)c(Cl)c1
inactive: [1] 98 % of control | [2] 101 % of control | [3] 95 % of control

CC(=O)c1cccc(NC(=O)N2CCN(c3ccccc3)CC2)c1
inactive: [4] 111 % of control | dose: 200.0 mg/kg/injection, schedule: Q01DX009 (ip), vehicle: saline with Tween-80 100 % of control

CCCCC(=O)N/N=C/c1ccc([N+](=O)[O-])cc1
inactive: [1] 95 % of control | [2] 89 % of control | [3] 94 % of control

CC(=O)CC(=O)Oc1ccccc1OC(C)=O
inactive: dose: 50.0 mg/kg/injection, schedule: Q01DX009 (ip), vehicle: Klucel (hydroxypropylcellulose) (HPC) 103 % of control | dose: 100.0 mg/kg/injection, schedule: Q01DX009 (ip), vehicle: Klucel (hydroxypropylcellulose) (HPC) 101 % of control | [5] 100 % of control | dose: 200.0 mg/kg/injection, schedule: Q01DX009 (ip), vehicle: Klucel (hydroxypropylcellulose) (HPC) 114 % of control | [6] 102 % of control

C/C(=N\Nc1c(F)c(F)c(F)c(F)c1F)c1ccccc1
inactive: dose: 100.0 mg/kg/injection, schedule: Q01DX001 (ip), vehicle: saline with Tween-80 105 % of control | dose: 200.0 mg/kg/injection, schedule: Q01DX001 (ip), vehicle: saline with Tween-80 96 % of control | dose: 400.0 mg/kg/injection, schedule: Q01DX001 (ip), vehicle: saline with Tween-80 100 % of control

O=C1Nc2ccccc2C12CNCS2 (stereo not drawn)
inactive: [7] 104 % of control | [8] 98 % of control | [9] 95 % of control

COc1ccc(C(=O)C(C)C(O)(C(F)(F)F)C(F)(F)F)cc1 (stereo not drawn)
inactive: dose: 75.0 mg/kg/injection, schedule: Q01DX009 (ip), vehicle: Klucel (hydroxypropylcellulose) (HPC) 97 % of control | [5] 111 % of control | dose: 150.0 mg/kg/injection, schedule: Q01DX009 (ip), vehicle: Klucel (hydroxypropylcellulose) (HPC) 101 % of control | [6] 100 % of control | dose: 300.0 mg/kg/injection, schedule: Q01DX009 (ip), vehicle: Klucel (hydroxypropylcellulose) (HPC) 92 % of control | dose: 400.0 mg/kg/injection, schedule: Q04DX003 (ip), vehicle: Klucel (hydroxypropylcellulose) (HPC) 100 % of control

COc1cc(C2C(C(=O)OC/C=C/c3ccc4c(c3)OCO4)C(c3cc(OC)c(OC)c(OC)c3)C2C(=O)OC/C=C/c2ccc3c(c2)OCO3)cc(OC)c1OC (stereo not drawn)
inactive: [10] 90 % of control | [11] 95 % of control | [12] 88 % of control

O=c1c2nccnc2[nH]n1-c1ccccc1
inactive: dose: 25.0 mg/kg/injection, schedule: Q04DX003 (ip), vehicle: Klucel (hydroxypropylcellulose) (HPC) 90 % of control | dose: 50.0 mg/kg/injection, schedule: Q04DX003 (ip), vehicle: Klucel (hydroxypropylcellulose) (HPC) 95 % of control

CC[N+](=Cc1ccccc1)C1CCCCC1
inactive: dose: 100.0 mg/kg/injection, schedule: Q01DX009 (ip), vehicle: saline 88 % of control | dose: 100.0 mg/kg/injection, schedule: Q04DX003 (ip), vehicle: saline 100 % of control | [13] 93 % of control | dose: 200.0 mg/kg/injection, schedule: Q04DX003 (ip), vehicle: saline 97 % of control | dose: 400.0 mg/kg/injection, schedule: Q04DX003 (ip), vehicle: saline 108 % of control

CN(C)C(=O)N1CCCCC1
inactive: [14] 101 % of control | [15] 93 % of control | dose: 400.0 mg/kg/injection, schedule: Q04DX002 (ip), vehicle: saline with Tween-80 111 % of control

O=C1CN(CO)C(=O)CN1CO
inactive: dose: 44.0 mg/kg/injection, schedule: Q01DX009 (ip), vehicle: saline 105 % of control | dose: 66.0 mg/kg/injection, schedule: Q01DX009 (ip), vehicle: saline 99 % of control | dose: 150.0 mg/kg/injection, schedule: Q01DX009 (ip), vehicle: saline 108 % of control | [13] 105 % of control | dose: 400.0 mg/kg/injection, schedule: Q01DX009 (ip), vehicle: saline 106 % of control

O=S(=O)(Cl)OC(CCl)C(OS(=O)(=O)Cl)C(OS(=O)(=O)Cl)C(CCl)OS(=O)(=O)Cl (stereo not drawn)
inactive: dose: 100.0 mg/kg/injection, schedule: Q04DX003 (ip), vehicle: saline with Tween-80 102 % of control | dose: 200.0 mg/kg/injection, schedule: Q04DX003 (ip), vehicle: saline with Tween-80 97 % of control | dose: 400.0 mg/kg/injection, schedule: Q04DX003 (ip), vehicle: saline with Tween-80 114 % of control

O=C1c2ccccc2C(=O)c2c1ccc1c(S(=O)(=O)Cl)cccc21
inactive: dose: 100.0 mg/kg/injection, schedule: Q04DX002 (ip), vehicle: saline 122 % of control | dose: 200.0 mg/kg/injection, schedule: Q04DX002 (ip), vehicle: saline 97 % of control | dose: 400.0 mg/kg/injection, schedule: Q04DX002 (ip), vehicle: saline 94 % of control

CSCCOC(=O)C1C2CCC(O2)C1C(=O)O (stereo not drawn)
inactive: dose: 12.5 mg/kg/injection, schedule: Q04DX003 (ip), vehicle: Klucel (hydroxypropylcellulose) (HPC) 104 % of control

O=NN(CCCl)C(=O)Nc1ccccc1NC(=O)N(CCCl)N=O
inactive: dose: 4.0 mg/kg/injection, schedule: Q01DX001 (ip), vehicle: carboxymethylcellulose (CMC) 122 % of control

CN(C)C(=S)[S][Pb]([S]C(=S)N(C)C)([c]1ccccc1)[c]1ccccc1
inactive: dose: 100.0 mg/kg/injection, schedule: Q01DX001 (ip), vehicle: steriod suspending solution 114 % of control | dose: 200.0 mg/kg/injection, schedule: Q01DX001 (ip), vehicle: steriod suspending solution 111 % of control | dose: 400.0 mg/kg/injection, schedule: Q01DX001 (ip), vehicle: steriod suspending solution 109 % of control

O=C/C(=C\C=C\c1ccc([N+](=O)[O-])cc1)c1ccccc1
inactive: dose: 75.0 mg/kg/injection, schedule: Q01DX001 (ip), vehicle: Klucel (hydroxypropylcellulose) (HPC) 86 % of control | dose: 150.0 mg/kg/injection, schedule: Q01DX001 (ip), vehicle: Klucel (hydroxypropylcellulose) (HPC) 88 % of control | dose: 300.0 mg/kg/injection, schedule: Q01DX001 (ip), vehicle: Klucel (hydroxypropylcellulose) (HPC) 89 % of control

COC(=O)C(CC(C)C)NC(=O)C(Cc1ccc(Oc2ccc([N+](=O)[O-])cc2[N+](=O)[O-])cc1)NC=O (stereo not drawn)
inactive: dose: 25.0 mg/kg/injection, schedule: Q01DX009 (ip), vehicle: water 104 % of control | dose: 50.0 mg/kg/injection, schedule: Q01DX009 (ip), vehicle: water 98 % of control | dose: 100.0 mg/kg/injection, schedule: Q01DX009 (ip), vehicle: water 102 % of control | dose: 200.0 mg/kg/injection, schedule: Q01DX009 (ip), vehicle: water 91 % of control | dose: 400.0 mg/kg/injection, schedule: Q01DX009 (ip), vehicle: water 97 % of control

O=C1Nc2ccc(Cl)cc2C1=O
inactive: [7] 90 % of control | [8] 93 % of control | [9] 93 % of control

Nc1ncnc(Nc2ccccc2Oc2ccccc2)n1
inactive: [10] 97 % of control | [11] 92 % of control | [12] 86 % of control

CC(=O)NCC(O)C(O)C(O)C(/C=N/Nc1ccccc1)=N/Nc1ccccc1 (stereo not drawn)
inactive: [16] 88 % of control | [14] 92 % of control | [15] 98 % of control

CCOC(=O)C1CC2CCC1CC2 (stereo not drawn)
inactive: dose: 25.0 mg/kg/injection, schedule: Q01DX005 (ip), vehicle: saline with Tween-80 92 % of control | dose: 25.0 mg/kg/injection, schedule: Q01DX009 (ip), vehicle: saline with Tween-80 102 % of control | dose: 25.0 mg/kg/injection, schedule: Q04DX002 (ip), vehicle: saline with Tween-80 106 % of control | dose: 50.0 mg/kg/injection, schedule: Q01DX005 (ip), vehicle: saline with Tween-80 92 % of control | dose: 50.0 mg/kg/injection, schedule: Q01DX009 (ip), vehicle: saline with Tween-80 94 % of control | [16] 94 % of control | dose: 100.0 mg/kg/injection, schedule: Q01DX005 (ip), vehicle: saline with Tween-80 89 % of control | [4] 109 % of control | [14] 97 % of control and 103 % of control
